# Test results reported in ChEMBL document CHEMBL1142720, “Fluoro-olefins as peptidomimetic inhibitors of dipeptidyl peptidases” (J Med Chem, 2005).
# Target: Dipeptidyl peptidase 2 (Homo sapiens, UniProt Q9UHL4)
# Experiment: Inhibitory concentration against human Dipeptidylpeptidase II
row,IC50 [µM],Compound
1,397,O=C(CNCc1ccccc1)N1CCCCC1
2,> 100,N#CC1CCC/C1=C(/F)CNC12CC3CC(CC(C3)C1)C2 (centres undefined)
3,500,FC(CNC1CCCCC1)=C1CCCCC1
4,177,O=C(CNC1CCCCC1)N1CCCCC1
5,500,O=C(CNCc1ccccc1)N1CCCC1
6,276,O=C(CNC1CCCCC1)N1CCCC1
7,> 100,N#CC1CCC/C1=C(\F)CNC12CC3CC(CC(C3)C1)C2 (centres undefined)

# Target: Dipeptidyl peptidase 4 (Homo sapiens, UniProt P27487)
# Sequence (P27487 whole entry): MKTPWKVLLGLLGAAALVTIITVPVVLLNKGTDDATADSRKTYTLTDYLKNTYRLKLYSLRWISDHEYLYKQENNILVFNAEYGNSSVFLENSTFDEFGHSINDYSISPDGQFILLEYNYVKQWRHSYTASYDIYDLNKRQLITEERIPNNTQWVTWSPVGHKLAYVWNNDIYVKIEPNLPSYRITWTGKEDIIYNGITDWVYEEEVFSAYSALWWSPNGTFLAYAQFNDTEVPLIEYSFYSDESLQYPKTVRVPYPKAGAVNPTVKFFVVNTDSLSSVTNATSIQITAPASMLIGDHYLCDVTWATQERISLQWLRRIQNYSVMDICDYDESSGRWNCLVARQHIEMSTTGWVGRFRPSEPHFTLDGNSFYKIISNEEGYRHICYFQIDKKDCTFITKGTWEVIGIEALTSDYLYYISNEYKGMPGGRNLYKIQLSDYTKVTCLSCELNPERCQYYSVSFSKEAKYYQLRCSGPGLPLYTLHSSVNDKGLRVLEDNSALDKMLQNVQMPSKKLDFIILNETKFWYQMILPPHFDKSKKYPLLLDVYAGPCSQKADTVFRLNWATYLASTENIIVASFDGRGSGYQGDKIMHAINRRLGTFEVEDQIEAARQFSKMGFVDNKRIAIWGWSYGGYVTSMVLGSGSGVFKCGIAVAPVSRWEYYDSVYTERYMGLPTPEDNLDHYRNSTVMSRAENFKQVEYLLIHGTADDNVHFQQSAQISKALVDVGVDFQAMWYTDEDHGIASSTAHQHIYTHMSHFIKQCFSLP
# Experiment: Inhibitory concentration against human Dipeptidylpeptidase IV
row,IC50 [µM],Compound
1,> 1000,O=C(CNCc1ccccc1)N1CCCCC1
2,> 1000,FC(CNCCc1ccccn1)=C1CCCC1
3,> 1000,FC(CNCc1ccccc1)=C1CCCC1
4,> 1000,FC(CNC1CCNCC1)=C1CCCCC1
5,> 1000,FC(CNCc1ccc(F)cc1)=C1CCCC1
6,> 250,C(CNCc1ccc2c(c1)OCO2)=C1CCCC1
7,> 500,FC(CNC1CCCCC1)=C1CCCCC1
8,> 1000,O=C(CNC1CCCCC1)N1CCCCC1
9,> 1000,O=C(CNCc1ccc2c(c1)OCO2)N1CCCC1
10,> 1000,N#CC1CCC/C1=C(/F)CNCc1ccc(F)cc1 (centres undefined)
11,1000,O=C(CNCc1ccccc1)N1CCCC1
12,> 250,FC(CNCc1ccc(F)cc1)=C1CCCCC1
13,148,O=C(CNC1CCCCC1)N1CCCC1
14,> 125,CN1CCC(NCC(F)=C2CCCCC2)CC1
15,> 1000,FC(CNCc1ccccc1)=C1CCCCC1
16,> 250,FC(CNC12CC3CC(CC(C3)C1)C2)=C1CCCCC1

row,IC50 [µM],Compound
1,> 250,FC(CNCc1ccc2c(c1)OCO2)=C1CCCCC1
2,> 1000,FC(CNC1CCCCC1)=C1CCCC1
3,> 1000,COc1ccc(CNCC(F)=C2CCCC2)cc1
4,> 1000,CN(C)CCCNCC(F)=C1CCCCC1
5,> 250,FC(CNC1CCN(Cc2ccccc2)CC1)=C1CCCC1
6,> 250,COc1ccc(CNCC(F)=C2CCCCC2)cc1
7,> 1000,S=C(CNCc1ccc2c(c1)OCO2)N1CCCCC1
8,> 1000,O=C(CNCc1ccc2c(c1)OCO2)N1CCCCC1
9,> 500,N#CC1CCC/C1=C(\F)CNCc1ccc(F)cc1 (centres undefined)
10,> 125,FC(CNCc1cccc(C(F)(F)F)c1)=C1CCCCC1
11,> 250,FC(CNC1CCN(Cc2ccccc2)CC1)=C1CCCCC1
12,> 1000,S=C(CNC1CCCCC1)N1CCCCC1
13,> 250,FC(CNc1ccccc1)=C1CCCCC1
14,> 1000,S=C(CNCc1ccccc1)N1CCCCC1
15,> 1000,CN(C)CCCNCC(F)=C1CCCC1
16,> 1000,C(CNCc1ccccc1)=C1CCCC1

row,Compound,IC50 [µM]
1,FC(CNCCc1ccccc1)=C1CCCC1,> 1000
2,C(CNC1CCCCC1)=C1CCCC1,> 1000
3,N#CC1CCC/C1=C(/F)CNCCc1ccccc1 (centres undefined),> 500
4,FC(CNCCc1ccccc1)=C1CCCCC1,> 1000
5,N#CC1CCC/C1=C(\F)CNCCc1ccccc1 (centres undefined),> 1000
